From US20230114207A1, “THE COMBINATION OF CYCLIN DEPENDENT KINASE 7 INHIBITOR AND IMMUNOTHERAPY FOR TREATMENT OF CANCER” (Dana-Farber Cancer Institute, Inc., priority 2019, published 2023)

Test system: INSM1, ASCL1, NFIB and MYC in DMS79 and GLC16
Experiment: RT-qPCR of super enhancer (SE)-associated genes
Type: cell-based, human
Conditions: 24 hr
Protocol: Cell pellets were collected and then subjected to total RNA extraction using RNeasy Plus Mini Kit (QIAGEN, Cat #74136) according to the manufacturer's instructions, or using TRIzol:Chloroform phase-separation by centrifugation followed by RNA precipitation using isopropanol. The extracted RNA was reversely transcribed into cDNA using the High-Capacity RNA-to-cDNA™ Kit (Thermo Fisher Scientific, Cat #4387406) according to the manufacturer's instructions. The obtained cDNA samples were diluted and used for RT-qPCR. PowerUp™ SYBR™ Green Master Mix (Thermo Fisher Scientific, Cat #A25742) or TaqMan Gene Expression Master Mix (Life Technologies, Cat #4369514). Gene specific primers with sequences listed in Table 3 were used for PCR amplification and detection on the StepOnePlus™ Real-Time PCR System (Thermo Fisher Scientific). RT-qPCR data were normalized to Actb (mouse cells) or GUSB (human cells) and presented as fold changes of gene expression in the test sample compared to the control.

CN(C)C/C=C/C(=O)Nc1ccc(C(=O)Nc2cccc(Nc3ncc(Cl)c(-c4c[nH]c5ccccc45)n3)c2)cc1 [THZ1, reference compound]
expression of super enhancer (SE)-associated genes including INSM1, ASCL1, NFIB and MYC: significant reduction
